According to the NIST ThermoML archive (doi:10.1021/je800110r):
± gives the expanded uncertainty stated by the source.

Conditions: 323.14 K, Liquid, Vibrating tube method

CCCCCCCCCC [decane]
Conditions | mass density [kg/m3]
13785 kPa | 718.8 ± 2
13804 kPa | 718.9 ± 2
13828 kPa | 718.9 ± 2
14191 kPa | 719.3 ± 2
14209 kPa | 719.3 ± 2
14225 kPa | 719.4 ± 2
14243 kPa | 719.2 ± 2
14258 kPa | 719.3 ± 2
14293 kPa | 719.3 ± 2
14335 kPa | 719.3 ± 2
14443 kPa | 719.4 ± 2
14465 kPa | 719.4 ± 2
14487 kPa | 719.5 ± 2
14504 kPa | 719.5 ± 2
14521 kPa | 719.5 ± 2
14541 kPa | 719.5 ± 2
14562 kPa | 719.5 ± 2
14576 kPa | 719.5 ± 2
14589 kPa | 719.5 ± 2
14598 kPa | 719.5 ± 2
14609 kPa | 719.6 ± 2
14666 kPa | 719.6 ± 2
14766 kPa | 719.7 ± 2
14778 kPa | 719.6 ± 2
14789 kPa | 719.6 ± 2
14800 kPa | 719.6 ± 2
14810 kPa | 719.7 ± 2
14824 kPa | 719.7 ± 2
14837 kPa | 719.7 ± 2
14850 kPa | 719.7 ± 2
14864 kPa | 719.8 ± 2
14876 kPa | 719.8 ± 2
14889 kPa | 719.7 ± 2
14900 kPa | 719.7 ± 2
14913 kPa | 719.8 ± 2
14923 kPa | 719.9 ± 2
14931 kPa | 719.9 ± 2
14941 kPa | 719.8 ± 2
14955 kPa | 719.8 ± 2
14964 kPa | 719.8 ± 2
14976 kPa | 719.9 ± 2
14990 kPa | 719.9 ± 2
15000 kPa | 719.8 ± 2
15350 kPa | 720.2 ± 2
15364 kPa | 720.1 ± 2
15378 kPa | 720.2 ± 2
15435 kPa | 720.1 ± 2
15447 kPa | 720.2 ± 2
15460 kPa | 720.2 ± 2
15476 kPa | 720.3 ± 2
15490 kPa | 720.3 ± 2
15507 kPa | 720.3 ± 2
15517 kPa | 720.2 ± 2
15527 kPa | 720.3 ± 2
15542 kPa | 720.4 ± 2
15556 kPa | 720.2 ± 2
15567 kPa | 720.3 ± 2
15581 kPa | 720.4 ± 2
15594 kPa | 720.3 ± 2
15610 kPa | 720.3 ± 2
15624 kPa | 720.4 ± 2
15639 kPa | 720.3 ± 2
15655 kPa | 720.4 ± 2
15673 kPa | 720.4 ± 2
15738 kPa | 720.4 ± 2
15754 kPa | 720.6 ± 2
15765 kPa | 720.5 ± 2
15776 kPa | 720.5 ± 2
15787 kPa | 720.5 ± 2
15805 kPa | 720.5 ± 2
15818 kPa | 720.6 ± 2
15829 kPa | 720.6 ± 2
15844 kPa | 720.6 ± 2
15853 kPa | 720.6 ± 2
15866 kPa | 720.5 ± 2
15877 kPa | 720.5 ± 2
15890 kPa | 720.5 ± 2
15904 kPa | 720.6 ± 2
15915 kPa | 720.5 ± 2
15926 kPa | 720.6 ± 2
15940 kPa | 720.6 ± 2
15955 kPa | 720.6 ± 2
15970 kPa | 720.6 ± 2
15982 kPa | 720.7 ± 2
16000 kPa | 720.7 ± 2
16012 kPa | 720.6 ± 2
16029 kPa | 720.7 ± 2
16041 kPa | 720.8 ± 2
16056 kPa | 720.6 ± 2
16067 kPa | 720.7 ± 2
16079 kPa | 720.8 ± 2
16091 kPa | 720.8 ± 2
16100 kPa | 720.9 ± 2
16110 kPa | 720.7 ± 2
16124 kPa | 720.7 ± 2
16136 kPa | 720.8 ± 2
16148 kPa | 720.7 ± 2
16160 kPa | 720.7 ± 2
16175 kPa | 720.8 ± 2
16192 kPa | 720.9 ± 2
16206 kPa | 720.8 ± 2
16223 kPa | 720.9 ± 2
16235 kPa | 720.9 ± 2
16249 kPa | 720.9 ± 2
16265 kPa | 720.8 ± 2
16281 kPa | 720.9 ± 2
16305 kPa | 720.9 ± 2
16323 kPa | 720.9 ± 2
16485 kPa | 721.1 ± 2
16497 kPa | 721 ± 2
16509 kPa | 721.1 ± 2
16526 kPa | 721 ± 2
16540 kPa | 721.1 ± 2
16554 kPa | 721.1 ± 2
16570 kPa | 721.1 ± 2
16583 kPa | 721 ± 2
16614 kPa | 721.1 ± 2
16658 kPa | 721.2 ± 2
17010 kPa | 721.4 ± 2
17025 kPa | 721.5 ± 2
17272 kPa | 721.7 ± 2
17288 kPa | 721.6 ± 2
17305 kPa | 721.6 ± 2
17323 kPa | 721.8 ± 2
17337 kPa | 721.8 ± 2
17350 kPa | 721.7 ± 2
17369 kPa | 721.7 ± 2
17387 kPa | 721.7 ± 2
17405 kPa | 721.7 ± 2
17419 kPa | 721.7 ± 2
17442 kPa | 721.7 ± 2
17455 kPa | 721.9 ± 2
17473 kPa | 721.8 ± 2
17491 kPa | 721.9 ± 2
17510 kPa | 721.8 ± 2
17532 kPa | 721.9 ± 2
17546 kPa | 721.9 ± 2
17561 kPa | 721.9 ± 2
17579 kPa | 721.9 ± 2
17593 kPa | 721.9 ± 2
17612 kPa | 722 ± 2
17645 kPa | 721.9 ± 2
17659 kPa | 722 ± 2
17677 kPa | 722 ± 2
17694 kPa | 722 ± 2
17715 kPa | 721.9 ± 2
17731 kPa | 722 ± 2
17751 kPa | 722 ± 2
17772 kPa | 722 ± 2
17788 kPa | 722.1 ± 2
17805 kPa | 722.1 ± 2
17824 kPa | 722.1 ± 2
17838 kPa | 722.1 ± 2
17860 kPa | 722.2 ± 2
17879 kPa | 722.1 ± 2
17901 kPa | 722.3 ± 2
17922 kPa | 722.1 ± 2
17942 kPa | 722.2 ± 2
17955 kPa | 722.2 ± 2
17972 kPa | 722.2 ± 2
17992 kPa | 722.3 ± 2
18009 kPa | 722.3 ± 2
18023 kPa | 722.3 ± 2
18038 kPa | 722.2 ± 2
18057 kPa | 722.1 ± 2
18072 kPa | 722.3 ± 2
18087 kPa | 722.2 ± 2
18109 kPa | 722.2 ± 2
18131 kPa | 722.3 ± 2
18155 kPa | 722.2 ± 2
18169 kPa | 722.3 ± 2
18192 kPa | 722.4 ± 2
18209 kPa | 722.4 ± 2
18232 kPa | 722.4 ± 2
18247 kPa | 722.4 ± 2
18269 kPa | 722.4 ± 2
18292 kPa | 722.4 ± 2
18310 kPa | 722.4 ± 2
18335 kPa | 722.4 ± 2
18351 kPa | 722.5 ± 2
18374 kPa | 722.5 ± 2
18390 kPa | 722.5 ± 2
18405 kPa | 722.5 ± 2
18423 kPa | 722.6 ± 2
18443 kPa | 722.5 ± 2
18464 kPa | 722.6 ± 2
18487 kPa | 722.7 ± 2
18500 kPa | 722.6 ± 2
18518 kPa | 722.7 ± 2
18543 kPa | 722.7 ± 2
18564 kPa | 722.7 ± 2
18583 kPa | 722.6 ± 2
18598 kPa | 722.7 ± 2
18616 kPa | 722.6 ± 2
18637 kPa | 722.7 ± 2
18660 kPa | 722.7 ± 2
18684 kPa | 722.7 ± 2
18703 kPa | 722.7 ± 2
18735 kPa | 722.7 ± 2
18758 kPa | 722.7 ± 2
18795 kPa | 722.8 ± 2
18816 kPa | 722.9 ± 2
18846 kPa | 722.9 ± 2
18905 kPa | 722.9 ± 2
18921 kPa | 722.9 ± 2
18940 kPa | 722.9 ± 2
18959 kPa | 723 ± 2
18983 kPa | 722.9 ± 2
19005 kPa | 723.1 ± 2
19027 kPa | 723 ± 2
19043 kPa | 723 ± 2
19062 kPa | 723.1 ± 2
19263 kPa | 723.2 ± 2
19308 kPa | 723.2 ± 2
19354 kPa | 723.3 ± 2
19373 kPa | 723.3 ± 2
19390 kPa | 723.4 ± 2
19410 kPa | 723.3 ± 2
19436 kPa | 723.3 ± 2
19461 kPa | 723.4 ± 2
19485 kPa | 723.4 ± 2
19509 kPa | 723.4 ± 2
19574 kPa | 723.4 ± 2
19594 kPa | 723.5 ± 2
19637 kPa | 723.4 ± 2
19655 kPa | 723.6 ± 2
19672 kPa | 723.5 ± 2
19720 kPa | 723.6 ± 2
19741 kPa | 723.5 ± 2
19760 kPa | 723.6 ± 2
19777 kPa | 723.6 ± 2
19795 kPa | 723.6 ± 2
19813 kPa | 723.6 ± 2
19840 kPa | 723.6 ± 2
19867 kPa | 723.7 ± 2
19891 kPa | 723.7 ± 2
19912 kPa | 723.8 ± 2
19936 kPa | 723.7 ± 2
19957 kPa | 723.7 ± 2
20009 kPa | 723.8 ± 2
20031 kPa | 723.8 ± 2
20049 kPa | 723.7 ± 2
20080 kPa | 723.8 ± 2
20105 kPa | 723.9 ± 2
20127 kPa | 723.9 ± 2
20154 kPa | 723.9 ± 2
20176 kPa | 723.9 ± 2
20191 kPa | 723.9 ± 2
20210 kPa | 724 ± 2
20235 kPa | 723.9 ± 2
20257 kPa | 724 ± 2
20286 kPa | 724 ± 2
20304 kPa | 723.8 ± 2
20323 kPa | 724 ± 2
20345 kPa | 724 ± 2
20363 kPa | 724 ± 2
20389 kPa | 724.1 ± 2
20431 kPa | 724.2 ± 2
20462 kPa | 724 ± 2
20482 kPa | 724.2 ± 2
20504 kPa | 724.1 ± 2
20520 kPa | 724.2 ± 2
20562 kPa | 724.2 ± 2
20584 kPa | 724.3 ± 2
20607 kPa | 724.2 ± 2
20630 kPa | 724.1 ± 2
20675 kPa | 724.4 ± 2
21120 kPa | 724.6 ± 2
21147 kPa | 724.5 ± 2
21168 kPa | 724.7 ± 2
21192 kPa | 724.6 ± 2
21219 kPa | 724.7 ± 2
21366 kPa | 724.8 ± 2
